Measurements taken from patent US20090215742A1, “AMIDE […]” (PFIZER, INC., priority 2005, published 2009).

Molecular target: T1, HSP-90 (Homo sapiens, UniProt P07900)
T1 construct: fused on or other part: 6-His tag at the C-terminus
Assay: HSP-90 SPA (scintillation proximity assay) competition binding assay, displacement of tritiated propyl-Geldanamycin
Conditions: for inhibition at 1 µM: read-out: % inhibition @ 1 μM; for inhibition at 10 µM: read-out: % inhibition @ 10 μM

Row | SMILES | inhibition at 1 µM [%] | inhibition at 10 µM [%]
1 | CN(CCc1ccccc1)C(=O)c1ccc(O)cc1O [Example 108, 2,4-dihydroxy-N-methyl-N-(2-phenylethyl)benzamide] | 40.5 | 83.1
2 | O=C(c1ccc(O)cc1O)N1CCc2ccccc2C1 [Example 109, 4-(3,4-dihydroisoquinolin-2(1H)-ylcarbonyl)benzene-1,3-diol] | 68 | 87.2
3 | O=C(c1ccc(O)cc1O)N1CCOC(COc2cccc(Cl)c2)C1 (stereo not shown) [Example 110, 4-({2-[(3-chlorophenoxy)methyl]morpholin-4-yl}carbonyl)benzene-1,3-diol] | 55.3 | 82.8
4 | O=C(c1ccc(O)cc1O)N1CCN(c2cnccn2)CC1 [Example 111, 4-[(4-pyrazin-2-ylpiperazin-1-yl)carbonyl]benzene-1,3-diol] | 5.9 | 64.2
5 | O=C(c1ccc(O)cc1O)N1CCOC(COc2ccccc2)C1 (stereo not shown) [Example 112, 4-{[2-(phenoxymethyl)morpholin-4-yl]carbonyl}benzene-1,3-diol] | 48.1 | 80.5
6 | CN(Cc1ccccc1Cl)C(=O)c1ccc(O)cc1O [Example 113, N-(2-chlorobenzyl)-2,4-dihydroxy-N-methylbenzamide] | 53 | 81.9
7 | O=C(c1ccc(O)cc1O)N1CCOC(COc2cc(F)cc(F)c2)C1 (stereo not shown) [Example 114, 4-({2-[(3,5-difluorophenoxy)methyl]morpholin-4-yl}carbonyl)benzene-1,3-diol] | 60.2 | 83.2
8 | O=C(c1ccc(O)cc1O)N1CCOC(COc2ccc(F)cc2Cl)C1 (stereo not shown) [Example 115, 4-({2-[(2-chloro-4-fluorophenoxy)methyl]morpholin-4-yl}carbonyl)benzene-1,3-diol] | 60.3 | 83.7
9 | COc1ccc(Cc2nnc3n2CCN(C(=O)c2ccc(O)cc2O)CC3)cc1 [Example 116, 4-{[3-(4-methoxybenzyl)-5,6,8,9-tetrahydro-7H-[1,2,4]triazolo[4,3-d][1,4]diazepin-7-yl]carbonyl}benzene-1,3-diol] | 5 | 62.1
10 | O=C(c1ccc(O)cc1O)N1CCSC1 [Example 117, 4-(1,3-thiazolidin-3-ylcarbonyl)benzene-1,3-diol] | 65 | 89.2
11 | COc1ccccc1-c1nnc(CN(C)C(=O)c2ccc(O)cc2O)o1 [Example 118, 2,4-Dihydroxy-N-{[5-(2-methoxyphenyl)-1,3,4-oxadiazol-2-yl]methyl}-N-methylbenzamide] | 15.4 | 57
12 | CN(Cc1nnc(-c2ccc(F)cc2)o1)C(=O)c1ccc(O)cc1O [Example 119, N-{[5-(4-fluorophenyl)-1,3,4-oxadiazol-2-yl]methyl}-2,4-dihydroxy-N-benzamide] | 50.9 | 82.8
13 | O=C(c1ccc(O)cc1O)N1CCOCC2(CC(c3ccc(F)cc3)=NO2)C1 (stereo not shown) [Example 120, 4-{[3-(4-fluorophenyl)-1,7-dioxa-2,10-diazaspiro[4.6]undec-2-en-10-yl]carbonyl}benzene-1,3-diol] | 76.2 | 89.4
14 | CN(Cc1nnc(-c2cccc(C#N)c2)o1)C(=O)c1ccc(O)cc1O [Example 121, N-{[5-(3-cyanophenyl)-1,3,4-oxadiazol-2-yl]methyl}-2,4-dihydroxy-N-methylbenzamide] | 10.6 | 64.6
15 | O=C(c1ccc(O)cc1O)N1CCOCC(COCc2c(Cl)cccc2Cl)C1 (stereo not shown) [Example 122, 4-[(6-{[(2,6-dichlorobenzyl)oxy]methyl}-1,4-oxazepan-4-yl)carbonyl]benzene-1,3-diol] | 48.2 | 79
16 | CN(Cc1nc2ccccc2o1)C(=O)c1ccc(O)cc1O [Example 123, N-(1,3-benzoxazol-2-ylmethyl)-2,4-dihydroxy-N-methylbenzamide] | 25.5 | 65.6

Row | SMILES | inhibition at 1 µM [%] | inhibition at 10 µM [%]
17 | O=C(c1ccc(O)cc1O)N1CCN(c2cnccn2)CC(CO)C1 (stereo not shown) [Example 124, 4-{[6-(hydroxymethyl)-4-pyrazin-2-yl-1,4-diazepan-1-yl]carbonyl}benzene-1,3-diol] | -4.8 | 18.1
18 | O=C(c1ccc(O)cc1O)N1CCN(c2nc3ccc(Cl)cc3o2)CC1 [Example 125, 4-{[4-(6-chloro-1,3-benzoxazol-2-yl)piperazin-1-yl]carbonyl}benzene-1,3-diol] | 22.4 | 59.8
19 | O=C(c1ccc(O)cc1O)N1CCN(c2nc(-c3ccccc3C(F)(F)F)cc(=O)[nH]2)CC1 [Example 126, 2-[4-(2,4-dihydroxybenzoyl)piperazin-1-yl]-6-[2-(trifluoromethyl)phenyl]pyrimidin-4(3H)-one] | 35.9 | 71
20 | COc1ccc2oc(N3CCN(C(=O)c4ccc(O)cc4O)CC3)nc2c1 [Example 127, 4-{[4-(5-methoxy-1,3-benzoxazol-2-yl)piperazin-1-yl]carbonyl}benzene-1,3-diol] | 21.1 | 60.3
21 | O=C(c1ccc(O)cc1O)N1CCOCC2(CC(c3cc(F)cc(F)c3)=NO2)C1 (stereo not shown) [Example 128, 4-{[3-(3,5-difluorophenyl)-1,7-dioxa-2,10-diazaspiro[4.6]undec-2-en-10-yl]carbonyl}benzene-1,3-diol] | 31.2 | 73.1
22 | COc1cc(C2=NOC3(COCCN(C(=O)c4ccc(O)cc4O)C3)C2)ccc1F (stereo not shown) [Example 129, 4-{[3-(4-fluoro-3-methoxyphenyl)-1,7-dioxa-2,10-diazaspiro[4.6]undec-2-en-10-yl]carbonyl}benzene-1,3-diol] | 60.5 | 88.5
23 | O=C(c1ccc(O)cc1O)N1CCOCC2(CC(c3ccccc3)=NO2)C1 (stereo not shown) [Example 130] | 46.2 | 82.4
24 | O=C(c1ccc(O)cc1O)N1CCOCC2(CC(c3c(F)cccc3F)=NO2)C1 (stereo not shown) [Example 131, 4-{[3-(2,6-difluorophenyl)-1,7-dioxa-2,10-diazaspiro[4.6]undec-2-en-10-yl]carbonyl}benzene-1,3-diol] | 24.7 | 69.6
25 | COc1ccc(F)c(C2=NOC3(COCCN(C(=O)c4ccc(O)cc4O)C3)C2)c1 (stereo not shown) [Example 132, 4-{[3-(2-fluoro-5-methoxyphenyl)-1,7-dioxa-2,10-diazaspiro[4.6]undec-2-en-10-yl]carbonyl}benzene-1,3-diol] | 33.3 | 73.9
26 | O=C(c1ccc(O)cc1O)N1CCSCC1 [Example 133, 4-(thiomorpholin-4-ylcarbonyl)benzene-1,3-diol] | 42.6 | 80
27 | O=C(c1ccc(O)cc1O)N1CCc2nnc(-c3cccc4ccccc34)n2CC1 [Example 134, (2,4-Dihydroxy-phenyl)-(3-naphthalen-1-yl-4,5,7,8-tetrahydro-1,2,3a,6-tetraaza-azulen-6-yl)-methanone] | 3.7 | 37.6
28 | O=C(c1ccc(O)cc1O)N1CCOC[C@@H]1c1ccccc1 [Example 135, 4-[(3-phenylmorpholin-4-yl)carbonyl]benzene-1,3-diol] | 15.9 | 44.7
29 | O=C(c1ccc(O)cc1O)N1CCn2cnnc2C1 [Example 136, 4-(5,6-dihydro[1,2,4]triazolo[4,3-a]pyrazin-7(8H)-ylcarbonyl)benzene-1,3-diol] | 10.4 | 47.8
30 | O=C(c1ccc(CO)cc1)N1Cc2ccccc2C1 [Example 184, [4-(1,3-dihydro-2H-isoindol-2-ylcarbonyl)phenyl] methanol] | – | 0
31 | O=C(c1cccc2cccnc12)N1Cc2ccccc2C1 [Example 187, 8-(1,3-dihydro-2H-isoindol-2-ylcarbonyl) quinoline] | 0 | –
32 | O=C(c1cc(Cl)cc(Cl)c1O)N1Cc2ccccc2C1 [Example 208, 2,4-dichloro-6-(1,3-dihydro-2H-isoindol-2-ylcarbonyl)phenol] | – | 0
